Test [1] concerns the target T1, hM2 mAChR (Homo sapiens, UniProt P08172).
T1 construct: expressed in transfected cells; host or cells: CHO-K1 (membrane preparation)
T1 sequence (P08172 1-466): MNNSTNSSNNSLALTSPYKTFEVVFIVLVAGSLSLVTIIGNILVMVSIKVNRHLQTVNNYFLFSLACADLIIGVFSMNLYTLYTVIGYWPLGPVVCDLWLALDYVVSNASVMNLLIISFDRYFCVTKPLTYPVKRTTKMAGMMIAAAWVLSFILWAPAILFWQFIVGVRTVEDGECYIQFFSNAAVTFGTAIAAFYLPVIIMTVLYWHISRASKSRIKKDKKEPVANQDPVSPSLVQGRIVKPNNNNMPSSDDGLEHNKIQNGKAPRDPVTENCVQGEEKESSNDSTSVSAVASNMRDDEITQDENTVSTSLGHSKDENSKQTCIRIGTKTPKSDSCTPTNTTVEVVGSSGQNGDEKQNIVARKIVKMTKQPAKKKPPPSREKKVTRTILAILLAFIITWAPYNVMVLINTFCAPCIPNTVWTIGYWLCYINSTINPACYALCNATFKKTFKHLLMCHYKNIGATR
As to the kind of experiment: [3H]NMS inhibition radioligand binding, hM2 in CHO-K1 cell membranes. Conditions: [3H]NMS, CHO-K1 cell membranes; mean ± S.E.M.

For test [2], the target named is T2, hM1 mAChR (Homo sapiens, UniProt P11229).
T2 construct: expressed in transfected cells; host or cells: CHO-K1 (membrane preparation)
T2 sequence (P11229 1-460): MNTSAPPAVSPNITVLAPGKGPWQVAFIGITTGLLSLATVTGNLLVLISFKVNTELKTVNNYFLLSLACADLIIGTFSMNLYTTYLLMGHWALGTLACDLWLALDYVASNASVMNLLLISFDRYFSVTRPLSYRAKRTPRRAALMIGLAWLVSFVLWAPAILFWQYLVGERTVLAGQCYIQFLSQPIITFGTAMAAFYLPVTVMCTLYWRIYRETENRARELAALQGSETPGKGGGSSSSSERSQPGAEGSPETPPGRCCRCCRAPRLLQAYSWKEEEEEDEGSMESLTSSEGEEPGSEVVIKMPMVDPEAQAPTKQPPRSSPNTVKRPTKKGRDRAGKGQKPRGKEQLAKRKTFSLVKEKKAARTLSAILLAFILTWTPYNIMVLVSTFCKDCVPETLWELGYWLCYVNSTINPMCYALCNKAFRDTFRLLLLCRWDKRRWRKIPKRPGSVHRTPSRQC
Description: [3H]NMS inhibition radioligand binding, hM1 in CHO-K1 cell membranes. The note with it: [3H]NMS, CHO-K1 cell membranes; mean ± S.E.M.

In the case of `C[N+](C)(C)C[C@@H]1COC[C@](c2ccccc2)(C2CCCCC2)O1.[I-]` (relative stereo) [3b, 1-((2R*,6R*)-6-Cyclohexyl-6-phenyl-1,4-dioxan-2-yl)-N,N,N-trimethylmethanaminium Iodide], the “pKi hM2” value in test [1] is listed as 7.91 ± 0.13. The “pKi hM1” value in test [2] is 9.28 ± 0.19.
